In ChEMBL document CHEMBL1143325 (Bioorg Med Chem, 2009) one finds Ki data, which are given here for 3 compounds.

For orientation: Ki means the equilibrium dissociation constant of an inhibitor or competing ligand from its target. Low readings indicate a stronger hold on the target, high ones a looser hold on the target.

In test [1] the target is Carbonic anhydrase 14 (Homo sapiens, UniProt Q9ULX7).
Test [2] concerns the target Carbonic anhydrase 4 (Homo sapiens, UniProt P22748).
For test [3], the target named is Carbonic anhydrase 9 (Homo sapiens, UniProt Q16790).
The target of test [4] is Carbonic anhydrase 13 (Mus musculus, UniProt Q9D6N1).
Test [5] has as its target Carbonic anhydrase 3 (Homo sapiens, UniProt P07451).
Test [6] has as its target Carbonic anhydrase 2 (Homo sapiens, UniProt P00918).
Test [7] addresses Carbonic anhydrase 5A, mitochondrial (Homo sapiens, UniProt P35218).
The target in test [8] is Carbonic anhydrase 7 (Homo sapiens, UniProt P43166).
In test [9] the target is Carbonic anhydrase 5B, mitochondrial (Homo sapiens, UniProt Q9Y2D0).
In test [10] the target is Carbonic anhydrase 6 (Homo sapiens, UniProt P23280).
Carbonic anhydrase 6, sequence (P23280 whole entry): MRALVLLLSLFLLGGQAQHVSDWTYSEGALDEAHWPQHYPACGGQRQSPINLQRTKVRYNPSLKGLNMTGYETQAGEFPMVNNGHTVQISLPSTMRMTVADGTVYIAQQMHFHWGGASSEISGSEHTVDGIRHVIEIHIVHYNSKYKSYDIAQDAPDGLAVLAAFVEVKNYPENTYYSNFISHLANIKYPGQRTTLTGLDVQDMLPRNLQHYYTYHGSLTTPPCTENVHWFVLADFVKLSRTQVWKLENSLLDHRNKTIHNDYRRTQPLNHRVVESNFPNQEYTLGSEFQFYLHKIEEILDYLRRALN

Carbonic anhydrase 3, sequence (P07451 whole entry): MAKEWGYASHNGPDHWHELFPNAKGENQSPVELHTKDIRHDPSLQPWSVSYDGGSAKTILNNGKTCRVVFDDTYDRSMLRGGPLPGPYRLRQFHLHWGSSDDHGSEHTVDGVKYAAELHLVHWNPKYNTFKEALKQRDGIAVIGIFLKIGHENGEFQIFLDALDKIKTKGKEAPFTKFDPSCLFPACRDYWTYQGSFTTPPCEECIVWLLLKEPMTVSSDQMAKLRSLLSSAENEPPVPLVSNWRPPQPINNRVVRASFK
Carbonic anhydrase 5B, mitochondrial, sequence (Q9Y2D0 whole entry): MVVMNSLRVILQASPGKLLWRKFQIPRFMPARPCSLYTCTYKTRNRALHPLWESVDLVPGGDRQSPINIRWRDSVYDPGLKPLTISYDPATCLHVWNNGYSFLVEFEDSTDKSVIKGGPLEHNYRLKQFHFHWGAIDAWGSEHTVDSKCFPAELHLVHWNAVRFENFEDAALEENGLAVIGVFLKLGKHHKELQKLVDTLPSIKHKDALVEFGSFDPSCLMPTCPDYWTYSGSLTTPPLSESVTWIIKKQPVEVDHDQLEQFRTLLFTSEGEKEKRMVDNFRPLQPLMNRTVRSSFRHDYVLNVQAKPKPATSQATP
Carbonic anhydrase 5A, mitochondrial, sequence (P35218 whole entry): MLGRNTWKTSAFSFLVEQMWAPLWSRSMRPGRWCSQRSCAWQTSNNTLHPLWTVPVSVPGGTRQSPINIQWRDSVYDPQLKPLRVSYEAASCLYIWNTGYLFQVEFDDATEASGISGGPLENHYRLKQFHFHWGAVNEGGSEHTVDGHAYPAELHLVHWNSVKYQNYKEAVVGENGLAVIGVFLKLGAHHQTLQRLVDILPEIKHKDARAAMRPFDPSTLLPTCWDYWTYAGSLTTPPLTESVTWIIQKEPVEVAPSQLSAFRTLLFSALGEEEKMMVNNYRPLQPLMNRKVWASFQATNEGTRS
Carbonic anhydrase 13, sequence (Q9D6N1 whole entry): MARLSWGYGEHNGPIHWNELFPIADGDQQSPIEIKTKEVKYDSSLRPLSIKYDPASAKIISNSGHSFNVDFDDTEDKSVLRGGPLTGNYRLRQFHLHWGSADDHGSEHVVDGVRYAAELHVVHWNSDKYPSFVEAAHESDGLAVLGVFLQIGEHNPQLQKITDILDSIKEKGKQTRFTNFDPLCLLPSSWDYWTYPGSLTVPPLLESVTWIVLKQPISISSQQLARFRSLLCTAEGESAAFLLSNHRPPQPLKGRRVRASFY
Carbonic anhydrase 14, sequence (Q9ULX7 whole entry): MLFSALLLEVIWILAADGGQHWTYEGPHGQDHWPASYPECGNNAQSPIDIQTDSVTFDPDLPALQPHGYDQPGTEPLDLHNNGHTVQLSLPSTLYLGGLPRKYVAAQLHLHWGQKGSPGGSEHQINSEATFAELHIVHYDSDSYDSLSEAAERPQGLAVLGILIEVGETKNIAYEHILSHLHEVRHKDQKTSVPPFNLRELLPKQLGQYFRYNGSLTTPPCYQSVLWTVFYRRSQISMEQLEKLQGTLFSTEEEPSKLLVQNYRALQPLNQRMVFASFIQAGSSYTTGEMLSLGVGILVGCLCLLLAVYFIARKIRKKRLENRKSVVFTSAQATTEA
Carbonic anhydrase 7, sequence (P43166 whole entry): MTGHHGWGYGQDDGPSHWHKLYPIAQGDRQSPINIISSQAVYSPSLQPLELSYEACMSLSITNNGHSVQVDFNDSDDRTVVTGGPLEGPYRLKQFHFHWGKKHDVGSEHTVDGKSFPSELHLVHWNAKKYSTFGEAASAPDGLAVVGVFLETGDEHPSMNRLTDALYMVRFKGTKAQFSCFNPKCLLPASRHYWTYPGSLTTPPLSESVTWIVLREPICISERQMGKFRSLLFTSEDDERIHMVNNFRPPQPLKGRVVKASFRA
Carbonic anhydrase 4, sequence (P22748 whole entry): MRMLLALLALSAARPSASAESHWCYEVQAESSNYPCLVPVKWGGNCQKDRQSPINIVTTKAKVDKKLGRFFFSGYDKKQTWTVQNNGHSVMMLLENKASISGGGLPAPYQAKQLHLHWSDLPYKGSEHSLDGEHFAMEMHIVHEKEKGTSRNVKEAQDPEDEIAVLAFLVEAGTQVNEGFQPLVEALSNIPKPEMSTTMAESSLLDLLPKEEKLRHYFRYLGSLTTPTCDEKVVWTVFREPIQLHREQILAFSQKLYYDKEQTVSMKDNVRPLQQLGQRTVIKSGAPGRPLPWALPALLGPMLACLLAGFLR

Consider `NS(=O)(=O)c1cc(C2(O)NC(=O)c3ccccc32)ccc1Cl` (configuration not stated) [CHLORTHALIDONE], for which the Ki in test [1] worked out at 4.13 µM; in test [2], 196 nM; in [3], 23 nM; in test [4] it was 15 nM; in [5] it was 11 µM; in [6], 138 nM. The Ki in test [7] worked out at 917 nM; in test [8], 2.8 nM; in test [9] it was 9 nM; in test [10], 1350 nM.
Take `NS(=O)(=O)c1cc(C(=O)O)c(NCc2ccco2)cc1Cl` [FUROSEMIDE]: in test [5], the Ki turned out to be 3200 µM.
In [5], `CC1Cc2ccccc2N1NC(=O)c1ccc(Cl)c(S(N)(=O)=O)c1` (configuration not stated) [INDAPAMIDE] gave an inhibition constant Ki of 230 µM.
